Nine compounds from BindingDB's records for doi:10.1016/j.bmcl.2010.06.021 (Shujitsu University, 2010) can be followed below.

The term IC50 denotes the concentration at which inhibition is half-maximal. Higher therefore signals lower potency.

In this assay the target is Beta-secretase 1 (Homo sapiens, UniProt P56817). The assay can be described thus: Inhibition of BACE1 after 60 mins by FRET assay.
Sequence of Beta-secretase 1 (P56817 whole entry): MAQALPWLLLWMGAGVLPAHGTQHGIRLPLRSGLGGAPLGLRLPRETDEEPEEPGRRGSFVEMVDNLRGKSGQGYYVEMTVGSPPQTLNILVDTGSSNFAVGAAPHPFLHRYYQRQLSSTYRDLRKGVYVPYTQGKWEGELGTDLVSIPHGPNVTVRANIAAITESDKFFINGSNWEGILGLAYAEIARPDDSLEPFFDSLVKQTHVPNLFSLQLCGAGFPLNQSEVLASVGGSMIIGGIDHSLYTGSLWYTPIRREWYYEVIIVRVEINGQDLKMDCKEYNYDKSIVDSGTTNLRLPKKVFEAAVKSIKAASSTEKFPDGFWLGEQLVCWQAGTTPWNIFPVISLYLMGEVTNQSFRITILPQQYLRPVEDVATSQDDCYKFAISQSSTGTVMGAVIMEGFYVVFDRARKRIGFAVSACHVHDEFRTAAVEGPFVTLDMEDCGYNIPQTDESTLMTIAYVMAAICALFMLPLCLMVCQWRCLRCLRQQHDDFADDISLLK
Compound `O=c1cc(O)cc2oc(-c3ccc(O)c(-c4c(O)cc5oc(-c6ccc(O)cc6)cc(=O)c5c4O)c3)cc(O)c1-2` showed a 50% inhibitory concentration (IC50) of over 10 µM.

With `O=c1cc(O)cc2oc(-c3ccc(Oc4c(O)cc5oc(-c6ccc(O)cc6)cc(=O)c5c4O)cc3)cc(O)c1-2`, the IC50 was over 10 µM.

`COc1ccc(-c2cc(O)c3c(=O)cc(O)cc-3o2)cc1-c1c(OC)cc(O)c2c(=O)cc(-c3ccc(O)cc3)oc12` [4',7''-di-O-methyl-amentoflavone] came in with an IC50 of over 10 µM.

Take `COc1ccc(-c2cc(=O)c3c(O)cc(OC)c(-c4cc(-c5cc(O)c6c(=O)cc(O)cc-6o5)ccc4O)c3o2)cc1` [7'',4'''-dimethylamentoflavone]: the IC50 was over 10 µM.

In turn, `COc1ccc(-c2cc(=O)c3c(O)cc(OC)c(-c4cc(-c5cc(O)c6c(=O)cc(OC)cc-6o5)ccc4OC)c3o2)cc1` [7,4',7'',4'''-O-methyl-amentoflavone] showed an IC50 of over 10 µM.

In the case of `COc1cc2oc(-c3ccc(OC)c(-c4c(OC)cc(O)c5c(=O)cc(-c6ccc(O)cc6)oc45)c3)cc(O)c-2c(=O)c1` [7-O-methyl-isoginkgetin], the IC50 was over 10 µM.

Regarding `COc1ccc(-c2cc(=O)c3c(O)cc(OC)c(-c4cc(-c5cc(O)c6c(=O)cc(OC)cc-6o5)ccc4O)c3o2)cc1` [heveaflavone], the IC50 is over 10 µM.

With `COc1ccc(-c2cc(=O)c3c(O)cc(OC)c(-c4cc(-c5cc(O)c6c(=O)cc(O)cc-6o5)ccc4OC)c3o2)cc1` [kayaflavone], the IC50 is over 10 µM.

Regarding `COc1ccc(-c2cc(=O)c3c(O)cc(O)c(-c4cc(-c5cc(O)c6c(=O)cc(OC)cc-6o5)ccc4OC)c3o2)cc1` [sciadopitisin], the IC50 was over 10 µM.
